Results from paper PMC11511111, “Scoliidines: Neuroprotective Peptides in Solitary Scoliid Wasp Venoms” (Toxins, 2024).
Where no end group is shown, it is not given here.

Tests used:
PC12 cells = assay: PC12 cytotoxicity (crystal violet cell viability); format: cell-based; settings: result in words
Procedure: Figure 2 Cytotoxic effects of γ-, δ- and ε-scoliidines on PC12 viability. The cells were exposed to peptides at different concentrations and times. The control and DMSO groups correspond to cells that have not been treated and cells that have been treated with a 5% concentration of DMSO, respectively. […] Statistical analysis was conducted using a one-way analysis of variance (ANOVA), followed by Dunnett’s post-test. The statistical difference when compared to the control group (p < 0.05) was indicated by asterisks.
(§1) All chemicals used here were analytical reagent grade (purity higher than 95%) purchased from different brands. The AChE enzyme was derived from Electrophorus electricus Type VI-S, and the ACE I enzyme was derived from rabbit lung and was acquired from Sigma-Aldrich Corporation (St. Louis, MO, USA). Neprilysin and the substrates [Abz-FRK (Dnp) P-OH and Abz-RGFK (Dnp)-OH] were supplied by Prof. Adriana Carmona from the Department of Biophysics at Federal University of São Paulo (SP, Brazil). PC12 cell (American Type Culture Collection ® CRL-1721™; Manassas, VA, USA) was used in the present study. Cells were routinely cultured in DMEM medium (Sigma-Aldrich Corporation; St. Louis, MO, USA), according to a previous study.
The cytotoxicity assay was performed using the staining of attached cells with crystal violet dye, according to the literature. Briefly, PC12 cells (5 × 10^3 cells per well; 96-well plates) were treated with different concentrations and times. Untreated cells or treated with DMSO (5%; v·v^−1) were included as controls. We measured the absorbance of dye solubilized in methanol at 570 nm using a microplate reader (BioTek Instruments, Inc., Winooski, VT, USA). We collected data from three distinct examinations, each performed three times, showing the percentage of cell viability relative to the control.
All results are shown as mean ± SD from three separate experiments (n = 3) in triplicate. One-way analysis of variance (ANOVA) was used for between-group comparisons, and Dunnett’s post-hoc test was used for multiple comparisons. Statistical significance was defined as p < 0.05. The analyses were done using GraphPad Prism 6.0 (GraphPad Software, Inc., La Jolla, CA, USA).

PC12 neuronal cells [1] = assay: PC12 mitochondrial metabolism (MTT reduction) / neuroprotection against H2O2-induced oxidative stress; format: cell-based; settings: H2O2 0.5 mmol·L^−1, 20 h, percent compared to control group, oxidative stress model
Procedure: PC12 cells were pre-treated with γ-, δ- or ε-scoliidines for 4 h and then exposed to γ-, δ- or ε-scoliidines containing H2O2 for an additional 20 h, providing a protective model (Figure 3A). Cells subjected to a 20-h exposure to H2O2 represent an oxidative stress model.
Figure 3 Neuroprotective property of γ-, δ- and ε-scoliidines on mitochondrial metabolism of the PC12 cell line against H2O2-induced oxidative stress. (A) The experiment involved treating cells (5 × 10^3 cells per well in a 96-well plate) with γ, δ, and ε scoliidines (1 μmol·L^−1) for 4 h at 37 °C. After that, the medium was changed with a solution containing peptide (1 μmol·L^−1) and H2O2 (0.5 mmol·L^−1), and the cells were incubated for an additional 20 h. (B) Protective effects of peptides against neurotoxicity caused by oxidative stress. […]
PC12 cells (5 × 10^3 cells per well) seeded in a 96-well plate (Nest Biotechnology, Rahway, NJ, USA) were used to study the neuroprotective effects of peptides against H2O2-induced oxidative stress, according to a previous study. […] The mitochondrial metabolism was analyzed by 3-(4,5-dimethylthiazol-2-yl)-2,5-diphenyltetrazolium bromide (MTT; 0.5 mg·mL^−1 for 3 h of incubation at 37 °C) reduction assay. The absorbance of the MTT formazan dissolved in 100% DMSO was measured at a wavelength of 540 nm using a spectrophotometer (BioTek Instruments, Inc., Winooski, VT, USA). […]

[2] = test system: acetylcholinesterase (AChE); assay: Acetylcholinesterase (AChE) activity, Ellman's method; format: biochemical, Electrophorus electricus; settings: compared to control (100 ± 1.6%), mean ± SD
Source text: Figure 4 Effects of γ-, δ- and ε-scoliidines on the function of acetylcholinesterase (AChE). The AChE activity was quantified as a percentage of hydrolyzed acetylthiocholine iodine substrate compared to the control (C; blank box). The data obtained from three separate experiments, each performed three times, is presented as mean ± SD.
as §1
The inhibition of AChE activity was determined spectrophotometrically based on Ellman’s method, as previously reported. We calculated AChE activity as the hydrolyzed acetylthiocholine iodide substrate concentration as a percentage of control.
All results are shown as mean ± SD from three separate experiments (n = 3) in triplicate. […]

PC12 neuronal cells [3] = settings: result in words, ref [25]; cited from earlier work
Source text: (§2) In recent years, our investigation has focused on scoliid wasp venoms. Scoliid wasps hunt and sting beetle larvae under the ground. Comprehensive LC-MS and MS/MS analysis of the venom extract from Scolia decorata ventralis identified two major peptide components named α- and β-scoliidine. […] This is the first case of solitary wasp venom peptides showing neuroprotective activity. Similarly, venom components of Campsomeriella annulata annulata were in ...

[4] = test system: angiotensin-converting enzyme (ACE); assay: Peptide stability / cleavage by angiotensin-converting enzyme; format: in vitro ADME, rabbit; settings: relative hydrolysis ratio; peptide 30 µmol·L^−1, ACE 7.5 ng, 37 °C, 4 h
Source text: as §1
(§3) The stability tests of peptides (30 µmol·L^−^1) were tested after incubation separately with ACE and NEP (7.5 ng) at 37 °C for 4 h, according to previous reports.

human neprilysin (NEP) = assay: Peptide stability / cleavage by neprilysin; format: in vitro ADME; settings: relative hydrolysis ratio; peptide 30 µmol·L^−1, NEP 7.5 ng, 37 °C, 4 h
Source text: as §1, §3

neuronal PC12 cells = settings: result in words, ref [26]; cited from earlier work
Source text: as §2

[5] = test system: acetylcholine (ACh) receptors of insect central nervous system; settings: result in words; insects' central nervous system; ref [18],[19],[20]; cited from earlier work
Source text: Scoliid wasp venoms were the first solitary wasp venoms to be studied between the years 1987 and 1990, and the presence of bradykinin-related peptides was reported. […] Since the f ...

[6] = all concentrations and times assessed, 570 nm

Question: With C[S+](C)[O-] [DMSO, reference compound] as the molecule, how does the “cell viability with DMSO” value (PC12 cells; DMSO 5% (v·v^−1)) read?
Answer: The value was “decrease in cell viability”.

Question: Which “mitochondrial metabolism of PC12 cells treated only with H2O2” value (PC12 neuronal cells [1]) does the source give for OO [H2O2] here?
Answer: Its value is 75.8 ± 2.4%.

Question: For CCOP(=O)(OCC)OP(=O)(OCC)OCC [TEPP, tetraethyl pyrophosphate], which “AChE activity with positive control” value [2] is on record?
Answer: Its value is 27.8 ± 6.5%.

Question: For DYVTVKGFSPLR [α-scoliidine], which “neuroprotective effect against oxidative stress-induced neurotoxicity” value (PC12 neuronal cells [3]) is on record?
Answer: Its value is “only β-scoliidine showed a neuroprotective effect”.

Question: Which cell viability (PC12 cells; 0.01 μmoL·L^−1, up to 6 h of treatment, 570 nm, three experiments in triplicate) does the source give for DYVTVKGFSPLREP [ε-scoliidine] here?
Answer: Its cell viability is “enhanced cell viability”.

Question: What about the cell viability (PC12 cells; 10 μmoL·L^−1, 24 h, 570 nm, three experiments in triplicate) of the same molecule?
Answer: Its cell viability is “cell viability decreased”.

Question: And the “concentration dependence of decrease in cell viability” value (PC12 cells; 570 nm)?
Answer: Its value is “decrease in cell viability was dependent on the concentration”.

Question: And the “Cleavage (%) ACE” value [4]?
Answer: The value was <0.01%.

Question: What about the “Cleavage (%) NEP” value (human neprilysin (NEP)) of the same molecule?
Answer: The value was <0.01%.

Question: For DYVTVKGFSPLRKA [β-scoliidine], which “Cleavage (%) ACE” value [4] is on record?
Answer: Its value is <0.01%.

Question: And the “Cleavage (%) NEP” value (human neprilysin (NEP))?
Answer: Its value is <0.01%.

Question: For PRLRRLTGLSPLR [α-campsomerin], which “cell growth potentiating effect” value (neuronal PC12 cells) is on record?
Answer: The value was “showed a cell growth potentiating effect”.

Question: Which “cell growth potentiating effect” value (neuronal PC12 cells) does the source give for PRLRRLTGLSPLRAP [β-campsomerin] here?
Answer: The value was “had no effect”.

Question: Which results are given for “RPPGFSPFR [bradykinin, reference compound]”?
Answer: Cleavage (%) ACE [4]: 100%; Cleavage (%) NEP (human neprilysin (NEP)): 100%

Question: For RPPGFTPFR [Thr^6-bradykinin], which “blocking action on ACh receptors” value [5] is on record?
Answer: The value was “showing a blocking action on ACh receptors”.

Question: With RPPGFTPFRKA [Megascoliakinin] as the molecule, how does the “blocking action on ACh receptors” value [5] read?
Answer: Its value is “showing a blocking action on ACh receptors”.

Question: With YVTVKGFSPLR [γ-scoliidine] as the molecule, how does the cell viability (PC12 cells; [6]) read?
Answer: Its cell viability is “cell viability remained unchanged”.

Question: What about the “Cleavage (%) ACE” value [4] of the same molecule?
Answer: Its value is <0.01%.

Question: What about the “Cleavage (%) NEP” value (human neprilysin (NEP)) of the same molecule?
Answer: The value was <0.01%.

Question: What does the source list for YVTVKGFSPLREP [δ-scoliidine]?
Answer: cell viability (PC12 cells; [6]): cell viability remained unchanged; Cleavage (%) ACE [4]: <0.01%; Cleavage (%) NEP (human neprilysin (NEP)): <0.01%
